Like-named read-outs stand apart in the source and are kept apart here.
What was measured:
[1] = target: T1, IKKε (Homo sapiens, UniProt Q14164); experiment: In-vitro IKKε kinase assay (radiolabelled ATP, filterplate); type: biochemical
T1 construct: His-tag (in-house Sf9 preparation) or GST-tag (purchased Invitrogen preparation); these are alternatives, not both on one protein; host or cells: Sf9 cells
T1 sequence (Q14164 1-716): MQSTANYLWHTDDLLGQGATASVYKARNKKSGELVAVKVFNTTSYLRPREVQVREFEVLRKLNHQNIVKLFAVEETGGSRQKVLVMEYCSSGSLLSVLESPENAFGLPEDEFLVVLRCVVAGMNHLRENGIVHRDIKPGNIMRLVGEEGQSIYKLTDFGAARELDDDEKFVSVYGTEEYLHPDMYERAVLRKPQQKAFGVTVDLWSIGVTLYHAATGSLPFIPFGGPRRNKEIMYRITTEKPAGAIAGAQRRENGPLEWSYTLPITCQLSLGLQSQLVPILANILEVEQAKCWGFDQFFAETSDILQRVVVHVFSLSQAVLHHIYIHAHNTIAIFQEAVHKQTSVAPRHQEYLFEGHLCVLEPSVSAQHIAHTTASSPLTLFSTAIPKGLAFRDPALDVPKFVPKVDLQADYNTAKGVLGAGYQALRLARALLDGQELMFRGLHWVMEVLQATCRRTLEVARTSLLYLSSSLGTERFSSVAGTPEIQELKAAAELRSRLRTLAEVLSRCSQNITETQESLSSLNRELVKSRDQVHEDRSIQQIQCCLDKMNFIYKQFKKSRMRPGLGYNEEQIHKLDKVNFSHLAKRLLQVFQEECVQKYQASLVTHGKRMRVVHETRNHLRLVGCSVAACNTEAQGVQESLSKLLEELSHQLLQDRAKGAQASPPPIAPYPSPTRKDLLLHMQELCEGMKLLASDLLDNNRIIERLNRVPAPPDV
In short: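 His-tagged IKKε from Sf9 cells or GST-tagged IKKε, with myelin basic protein, casein or dephosphorylated casein as substrate and 32 μM ATP (2× Km) plus [γ^33]ATP. "Normal" assay used 0.1 μg/ml enzyme; "sensitized" used 0.015 μg/ml with dephosphorylated casein only. Stopped after 30–45 min with phosphoric acid; P-81 filter counts normalized to DMSO after background subtraction.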

[2] = test system: IKKε-mediated phosphorylation of IRF3; experiment: ELISA for in-situ phosphorylation of IRF3 (phospho-Ser396) in HEK293T cells cotransfected with IRF3 and IKKε; type: cell-based; conditions: Homo sapiens, HEK-293T, 20 h, HEK293T cells, 20 hours, read-out: IC50, in-situ IKKε-mediated phosphorylation of IRF3
In short: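 HEK293T cells cotransfected with IRF3 and IKKε were treated with compound for 20 h, and lysates were assayed by ELISA for phospho-Ser396 IRF3, normalized to DMSO. Viability was checked in parallel by CellTiter-Glo. For TBK1, cells cotransfected with IRF7 and TBK1 were treated overnight and probed by Western blot for phospho-Ser477/Ser479 IRF7.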

[3] = in-vitro IKKε kinase inhibition assays, given as 0.005 μM (5 nM), read-out: IKKε kinase inhibitory activity (IC50 value)
[4] = "sensitized" assay, read-out: IC50, inhibition of the kinase activity of IKKε
[5] = range given from about 1 μM to about 250 nM

Work on `CC(=O)N(C)Cc1ccc(Nc2nccc(-c3ccc(OC4CCOCC4)c(C#N)c3)n2)cn1` [Example Compound 53, N-{[5-({4-[3-Cyano-4-(tetrahydro-2H-pyran-4-yloxy)phenyl]pyrimidin-2-yl}amino)pyridin-2-yl]methyl}-N-methylacetamide] yielded an IC50 [1, 3] of less than 5 nM and an IC50 [2] of 100 to 250 nM.
In the case of `COCCNc1ncc(-c2ccc(Nc3nccc(-c4ccc(OC5CCOCC5)c(C#N)c4)n3)cn2)cn1` [Example Compound 80, 5-{2-[(6-{2-[(2-Methoxyethyl)amino]pyrimidin-5-yl}pyridin-3-yl)amino]pyrimidin-4-yl}-2-(tetrahydro-2H-pyran-4-yloxy)benzonitrile], the IC50 [1, 3] is reported as less than 5 nM and the IC50 [2] is reported as less than 100 nM.
`N#Cc1cc(-c2ccnc(Nc3ccnc(CO)c3)n2)ccc1OC1CCOCC1` [Example Compound 227, 5-(2-{[2-(Hydroxymethyl)pyridin-4-yl]amino}pyrimidin-4-yl)-2-(tetrahydro-2H-pyran-4-yloxy)benzonitrile] showed an IC50 [1, 4] of less than 5 nM and an IC50 [2] of less than 100 nM.
`COCCNc1cc(Nc2nccc(-c3ccc(OC4CCOCC4)c(C#N)c3)n2)ccn1` [Example Compound 193, 5-[2-({2-[(2-Methoxyethyl)amino]pyridin-4-yl}amino)pyrimidin-4-yl]-2-(tetrahydro-2H-pyran-4-yloxy)benzonitrile] gave an IC50 [1, 4] of less than 5 nM and an IC50 [2] of less than 100 nM.
`N#Cc1cc(-c2ccnc(Nc3ccncc3)n2)ccc1OC1CCOCC1` [Example Compound 34, 5-[2-(Pyridin-4-ylamino)pyrimidin-4-yl]-2-(tetrahydro-2H-pyran-4-yloxy)benzonitrile] was tested, and the IC50 [1, 4] was less than 5 nM, the IC50 [1, 3] was less than 5 nM and the IC50 [2, 5] was 250 to 1000 nM.
`CC(=O)NCc1ccc(Nc2nccc(-c3ccc(OC4CCOCC4)c(C#N)c3)n2)cn1` [Example Compound 228, N-{[5-({4-[3-Cyano-4-(tetrahydro-2H-pyran-4-yloxy)phenyl]pyrimidin-2-yl}amino)pyridin-2-yl]methyl}acetamide] was tested, and the IC50 [1, 4] was less than 5 nM and the IC50 [2, 5] was 250 to 1000 nM.
Work on `COCCOC1CN(c2cc(Nc3nccc(-c4ccc(OC5CCOCC5)c(C#N)c4)n3)ccn2)C1` [Example Compound 45, 5-[2-({2-[3-(2-Methoxyethoxy)azetidin-1-yl]pyridin-4-yl}amino)pyrimidin-4-yl]-2-(tetrahydro-2H-pyran-4-yloxy)benzonitrile] yielded an IC50 [1, 4] of less than 5 nM, an IC50 [1, 3] of less than 5 nM and an IC50 [2] of 100 to 250 nM.
`N#Cc1cc(-c2ccnc(Nc3ccnc(-c4cn[nH]c4)c3)n2)ccc1OC1CCOCC1` [Example Compound 83, 5-(2-{[2-(1H-Pyrazol-4-yl)pyridin-4-yl]amino}pyrimidin-4-yl)-2-(tetrahydro-2H-pyran-4-yloxy)benzonitrile] gave an IC50 [1, 4] of less than 5 nM, an IC50 [1, 3] of less than 5 nM and an IC50 [2] of 100 to 250 nM.
`COC1CN(c2cc(Nc3nccc(-c4ccc(OC5CCN(C(=O)CO)CC5)c(C#N)c4)n3)ccn2)C1` [Example Compound 249, 2-{[1-(Hydroxyacetyl)piperidin-4-yl]oxy}-5-(2-{[2-(3-methoxyazetidin-1-yl)pyridin-4-yl]amino}pyrimidin-4-yl)benzonitrile] showed an IC50 [1, 4] of less than 5 nM and an IC50 [2] of less than 100 nM.
`Cc1ccc(Nc2nccc(-c3ccc(OC4CCOCC4)c(C#N)c3)n2)cn1` [Example Compound 7, 5 5-{2-[(6-Methylpyridin-3-yl)amino]pyrimidin-4-yl}-2-(tetrahydro-2H-pyran-4-yloxy)benzonitrile] was tested, and the IC50 [1, 4] was less than 5 nM, the IC50 [1, 3] was less than 5 nM and the IC50 [2] was 100 to 250 nM.
With `CC(=O)c1ccc(Nc2nccc(-c3ccc(OC4CCOCC4)c(C#N)c3)n2)cn1` [Example Compound 212, 5-{2-[(6-Acetylpyridin-3-yl)amino]pyrimidin-4-yl}-2-(tetrahydro-2H-pyran-4-yloxy)benzonitrile] the IC50 [1, 4] was less than 5 nM and the IC50 [2] was less than 100 nM.
With `N#Cc1cc(-c2ccnc(Nc3ccnc(CN4CCC(F)(F)C4)c3)n2)ccc1OC1CCOCC1` [Example Compound 71, 5-[2-({2-[(3,3-Difluoropyrrolidin-1-yl)methyl]pyridin-4-yl}amino)pyrimidin-4-yl]-2-(tetrahydro-2H-pyran-4-yloxy)benzonitrile] the IC50 [1, 3] was less than 5 nM and the IC50 [2] was less than 100 nM.
Compound `CN(CCS(C)(=O)=O)Cc1ccc(Nc2nccc(-c3ccc(OC4CCOCC4)c(C#N)c3)n2)cn1` [Example Compound 54, 5-(2-{[6-({Methyl[2-(methylsulfonyl)ethyl]amino}methyl)pyridin-3-yl]amino}pyrimidin-4-yl)-2-(tetrahydro-2H-pyran-4-yloxy)benzonitrile] has an IC50 [1, 3] of less than 5 nM and an IC50 [2] of 100 to 250 nM.
For `N#Cc1cc(-c2ccnc(Nc3ccnc(N4CCN(CCO)CC4)c3)n2)ccc1OC1CCOCC1` [Example Compound 42, 5-[2-({2-[4-(2-Hydroxyethyl)piperazin-1-yl]pyridin-4-yl}amino)pyrimidin-4-yl]-2-(tetrahydro-2H-pyran-4-yloxy)benzonitrile], the IC50 [1, 4] was less than 5 nM, the IC50 [1, 3] was less than 5 nM and the IC50 [2] was less than 100 nM.
With `N#Cc1cc(-c2ccnc(Nc3ccnc(NCCO)c3)n2)ccc1OC1CCN(C(=O)CO)CC1` [Example Compound 239, 2-{[1-(Hydroxyacetyl)piperidin-4-yl]oxy}-5-[2-({2-[(2-hydroxyethyl)amino]pyridin-4-yl}amino)pyrimidin-4-yl]benzonitrile] the IC50 [1, 4] was less than 5 nM and the IC50 [2] was 1000 to 5000 nM.
Compound `CCN(CC)c1ccc(Nc2nccc(-c3ccc(O[C@@H]4CCN(C(=O)CO)C4)c(C#N)c3)n2)cn1` [Example Compound 117, 5-(2-{[6-(Diethylamino)pyridin-3-yl]amino}pyrimidin-4-yl)-2-{[(3R)-1-(hydroxyacetyl)pyrrolidin-3-yl]oxy}benzonitrile] has an IC50 [1, 4] of less than 5 nM, an IC50 [1, 3] of less than 5 nM and an IC50 [2, 5] of 250 to 1000 nM.
`Cn1cc(-c2cc(Nc3nccc(-c4ccc(O[C@@H]5CCN(C(=O)CO)C5)c(C#N)c4)n3)ccn2)cn1` [Example Compound 126, 2-{[(3R)-1-(Hydroxyacetyl)pyrrolidin-3-yl]oxy}-5-(2-{[2-(1-methyl-1H-pyrazol-4-yl)pyridin-4-yl]amino}pyrimidin-4-yl)benzonitrile] was tested, and the IC50 [1, 3] was less than 5 nM and the IC50 [2] was 1000 to 5000 nM.
In the case of `N#Cc1cc(-c2ccnc(Nc3ccnc(N4CCC[C@@H]4CO)c3)n2)ccc1OC1CCOCC1` [Example Compound 37, 5-[2-({2-[(2R)-2-(Hydroxymethyl)pyrrolidin-1-yl]pyridin-4-yl}amino)pyrimidin-4-yl]-2-(tetrahydro-2H-pyran-4-yloxy)benzonitrile], the IC50 [1, 3] is reported as less than 5 nM and the IC50 [2] is reported as 100 to 250 nM.
`COCCNCc1cncc(Nc2nccc(-c3ccc(OC4CCOCC4)c(C#N)c3)n2)c1` [Example Compound 184, 5-{2-[(5-{[(2-Methoxyethyl)amino]methyl}pyridin-3-yl)amino]pyrimidin-4-yl}-2-(tetrahydro-2H-pyran-4-yloxy)benzonitrile] showed an IC50 [1, 4] of less than 5 nM and an IC50 [2] of 100 to 250 nM.
Compound `N#Cc1cc(-c2ccnc(Nc3ccnc(N4CC(O)C4)c3)n2)ccc1OC1CCN(C(=O)CO)CC1` [Example Compound 240, 2-{[1-(Hydroxyacetyl)piperidin-4-yl]oxy}-5-(2-{[2-(3-hydroxyazetidin-1-yl)pyridin-4-yl]amino}pyrimidin-4-yl)benzonitrile] has an IC50 [1, 4] of less than 5 nM and an IC50 [2] of 1000 to 5000 nM.
Work on `CC(c1ccc(Nc2nccc(-c3ccc(OC4CCOCC4)c(C#N)c3)n2)cn1)N1CC(O)C1` (stereo not shown) [Example Compound 63, 5-[2-({6-[1-(3-Hydroxyazetidin-1-yl)ethyl]pyridin-3-yl}amino)pyrimidin-4-yl]-2-(tetrahydro-2H-pyran-4-yloxy)benzonitrile] yielded an IC50 [1, 3] of less than 5 nM and an IC50 [2] of 100 to 250 nM.
With `N#Cc1cc(-c2ccnc(Nc3ccc(C(=O)N4CCCC4)nc3)n2)ccc1OC1CCN(C(=O)CO)CC1` [Example Compound 232, 2-{[1-(Hydroxyacetyl)piperidin-4-yl]oxy}-5-(2-{[6-(pyrrolidin-1-ylcarbonyl)pyridin-3-yl]amino}pyrimidin-4-yl)benzonitrile] the IC50 [1, 4] was less than 5 nM and the IC50 [2] was 100 to 250 nM.
Compound `CC(c1ncc(Nc2nccc(-c3ccc(OC4CCOCC4)c(C#N)c3)n2)cc1F)N1CCOCC1` (stereo not shown) [Example Compound 251] has an IC50 [1, 4] of less than 5 nM and an IC50 [2] of 100 to 250 nM.

Source: patent US20140288044A1, “COMPOSITIONS AND THERAPEUTIC USES OF IKK-RELATED KINASE EPSILON AND TANKBINDING KINASE 1 INHIBITORS” (Alzheimer's Institute of America, Inc., priority 2011, published 2014)
